Results from patent US8796286B2, “Agent for treatment of liver diseases containing pyrazolopyrimidinone derivative” (Mezzion Pharma Co., Ltd., priority 2005, dated 2014).
Read-outs that look alike come from different tables or passages of the source.

Assays:
[1] = test system: portal hypertension model; test: Portal hypertension animal model (bile duct ligation): portal blood pressure, portal vein diameter, blood flow; assay type: in vivo, beagle dog; settings: 10 mg/kg/day oral for two weeks; for Portal vein diameter / Blood flow rate (portal vein) / Portal blood pressure: bile duct ligated beagle dogs, mean ± standard deviation; for Portal vein diameter: Doppler ultrasonography
Protocol: The following experiments were performed to investigate the effect of pyrazolopyrimidinone derivative on portal hypertension. 12 beagle dogs weighing about 10 kg were divided into four groups (3 dogs were chosen per group randomly), and bile duct ligation was performed on them. […] The animals were fasted for 4 hours, then pentobarbital was intravenously injected to anesthetize them. A tube was inserted through the mesenteric vein to the portal vein to measure portal blood pressure. Doppler ultrasonography was also performed to measure the diameter of portal vein. Blood flow through the portal vein was measured by using the following mathematical chemistry FIG. 1, and the result is shown in Table 2. [formula]

[2] = pKa (physicochemical properties)
[3] = Solubility (physicochemical properties)
[4] = test system: collagen synthesis in liver, hepatic fibrosis model; test: Liver protective effect in DMN-induced hepatic fibrosis animal model (collagen type I/III immunohistological staining); assay type: in vivo, Sprague Dawley rat; settings: 10 mg/kg/day oral for 2 weeks; for collagen synthesis in hepatic portal veins and around the portal veins (immunohistology): DMN 10 mg/kg i.p. three times per week for 2 weeks, versus solvent control
Protocol: The following experiments were performed to investigate the in vivo collagen synthesis inhibitory effect of pyrazolopyrimidinone derivative of the present invention. Sprague Dawley white female rats (having approximately 300 g in weight) were divided into 4 groups (5 rats per group), and hepatic fibrosis was induced in experimental groups except the wild type control group (Toxicology, 2001). DMN (dimethylnitrosamine) was injected into the abdominal cavity in a dose of 10 mg/kg serially for 2 weeks with a dose frequency of three times per week. […] Only triazole buffer was administered to the solvent control group. Two weeks later, the liver was extracted, fixed in 10% neutral formalin, embedded in paraffin and sliced by […]. Each section was treated with xylene to eliminate paraffin, followed by treatment with alcohol and 0.1% hydrogen peroxide (H2O2). After treatment with PBS, the sections were treated with polyclonal antiserum (Chemicon) against collagen type I diluted by 1:500 and polyclonal antiserum (BioGenesis) against collagen type III diluted by 1:100, at 37° C. for one hour. After washing, samples were treated with 1:200 diluted biotin-conjugated goat anti-rabbit IgG. Immunohistological staining was performed by reacting the samples with avidin-biotin complex (Vector Laboratories), then antigen-antibody complex was marked with 3-amino-9-ethylcarbazole (AEC), whose image was taken by optical microscope now shown in FIG. 1-4. The control group was treated with non-immunized horse serum instead of primary antibody.

[5] = In vivo pharmacokinetics in portal hypertension patients (plasma HPLC); settings: human
Protocol: Nine volunteers among portal hypertension patients who were in the criterion of age from 19-45 and weight over 45 kg (within 15% deviation of ideal body weight) participated in experiments. They were all volunteers who agreed in writing to join the experiments and were trustworthy, cooperative and willing to follow the rules.
A double blind method was used for the experiments. At 8-9 am on the test day, test medicines were given with 240 mL of water to volunteers. For 4 hours from the administration, they were fasted, and lunch was provided 4 hours later and dinner was provided 9 hours later. Blood samples were taken before the administration on the test day and at the 0.5th, 1st, 1.5th, 2nd, 2.5th, 3rd, 4th, 5th, 6th, 8th, 12th, 24th and 32nd hour after the administration. Blood plasma was isolated, followed by HPLC. 100 μL of 0.1 M sodium carbonate and 1.0 mL of ethyl ether were added to 0.5 mL of blood plasma, then mixed well for 1 minute, followed by centrifugation at 12,000 rpm for 3 minutes. Supernatant was obtained and organic solvent was volatilized using speed vac. Then, 100 μL of moving phase was added, followed by stirring.

[6] = test system: collagen synthesis in hepatic stellate cells; test: Inhibitory effect on collagen synthesis using hepatic stellate cells (RT-PCR for collagen); assay type: cell-based, Sprague Dawley rat; settings: for IC50: Rattus norvegicus, hepatic stellate cells pre-treated with 25 ng/mL PDGF for 24 hours, collagen RT-PCR relative to beta-actin, mean ± standard deviation
Protocol: The following experiments were performed to investigate the inhibition effect of pyrazolopyrimidinone derivative of the present invention on collagen synthesis. Hepatic stellate cells were isolated from Sprague Dawley white male rats (about 300 g in weight, n=10). First, ketamin was injected into the abdominal cavity to anesthetize the rats. The abdomen was opened and heparin was injected into the portal vein. Then, Hank's buffer solution containing 0.02% pronase and 0.015% collagenase was perfused through the liver for a required time to prepare liver in sections. The extracted liver was crushed on a sterilized petri-dish, then put in a buffer solution containing pronase and DNase, and the crushed liver was then homogenized on a sterilized petri-dish. The prepared sample was filtered with 100 μm nylon mesh in a 50 mL tube. Centrifugation was performed with 50 g for 2 minutes to separate nonparenchymal cells in supernatant. Centrifugation was performed again with 450 g at 4° C. for 10 minutes. The precipitate was floated in a buffer solution containing 25 μg/mL of DNase, followed by centrifugation with 450 g at 4° C. for 10 minutes, which was repeated twice. The final precipitate was floated in 21 mL of buffer solution, which was then mixed with 17 mL of 25% OptiPrep to prepare the final solution of 11.2% OptiPrep (1.058 cm^3). Cell suspension solution mixed with OptiPrep was carefully distributed into four 15 mL tubes containing 3 mL of 17% OptiPrep, to which 1 mL of buffer solution was added. Centrifugation was performed with 1400 g at 4° C. for 17 minutes, and as a result, pure hepatic stellate cells were obtained from the opaque layer between the buffer solution and […]. The separated hepatic stellate cells were suspended in DMEM (Dulbecco's Modified Eagle' Media), followed by washing. The cells were suspended again in DMEM supplemented with 10% FBS (Fetal Bovine Serum) and antibiotics, then inoculated into a culture vessel, which was cultured in a 37° C. 5% CO2 incubator. The culture medium was first replaced 24 hours later, and then replaced every 48 hours for sub-culture. Hepatic stellate cells sub-cultured 8 times were grouped by 2×10^5, which were pre-treated with 25 ng/mL of PDGF (Platelet Derived Growth Factor) for 24 hours. […] The total RNA was extracted and RT-PCR (Reverse Transcriptase Polymerase Chain Reaction) for collagen was performed. Based on the relative concentration to beta-actin, a target material was compared with other test samples. In order to determine the inhibitory effect of a target sample on collagen synthesis, inhibitory concentration 50% (IC50) was investigated, and the result is shown in Table 1.

[7] = test system: experimental cirrhosis models; settings: dose-dependently; cited from earlier work

| IC50 [6] [nM] | Compound | blood flow rate through portal vein increase compared with solvent treated group [1] [%] | portal blood pressure decrease compared with solvent treated control group [1] [%] | Portal vein diameter [1] [mm] | Blood flow rate (portal vein) [1] [mL/min] | Portal blood pressure [1] [kPa] | collagen synthesis in hepatic portal veins and around the portal veins (immunohistology) [4] | further results |
| --- | --- | --- | --- | --- | --- | --- | --- | --- |
| 0.8 ± 0.2 | CCCOc1ccc(S(=O)(=O)NCCC2CCCN2C)cc1-c1nc2c(CCC)nn(C)c2c(=O)[nH]1 (stereo not shown) [Pyrazolopyrimidinone derivative, 5-[2-propyloxy-5-(1-methyl-2-pyrrolidinylethyl amidosulfonyl)phenyl]-1-methyl-3-propyl-1,6-dihydro-7H-pyrazolo(4,3-d)pyrimidin-7-one] | 59.9 | 21 | 7.70 ± 0.26 | 932.31 ± 89.83 | 2.50 ± 0.20 | remarkably inhibited | pKa1 [2]: 6.5; pKa2 [2]: 12.5; solubility in acetic acid, methanol and chloroform ([3]; acetic acid, methanol and chloroform): soluble; solubility in water ([3]; water): insoluble; inhibition of collagen synthesis compared with the sildenafil treated group ([4]; DMN rats): greater than that in the sildenafil treated group; half-life, fold longer than vardenafil ([5]; in vivo): two fold; half-life ([5]; in vivo, po, 100 mg): 906 ± 210 min; collagen synthesis inhibitory effect, times higher than sildenafil ([6]; ratio of IC50 versus sildenafil): 16 times; collagen synthesis inhibitory effect, times higher than vardenafil ([6]; ratio of IC50 versus vardenafil): 10 times; collagen synthesis inhibitory effect, times as excellent as other conventional PDE 5 inhibitors ([6]; versus other conventional PDE 5 inhibitors (Table 1)): 10-16 times |
| 13.1 ± 2.3 | CCCc1nn(C)c2c(=O)[nH]c(-c3cc(S(=O)(=O)N4CCN(C)CC4)ccc3OCC)nc12 [Sildenafil, sildenafil] | 29.1 | 7 | 7.47 ± 0.21 | 754.47 ± 80.24 | 2.93 ± 0.25 | remarkably inhibited | half-life ([5]; plasma, patients with portal hypertension, 50 mg oral, mean ± standard deviation, read-out: Half-life (converted)): 270 ± 72 min; Portal blood pressure [7]: increases; blood flow through mesenteria [7]: increases |
| 7.8 ± 1.7 | CCCc1nc(C)c2c(=O)[nH]c(-c3cc(S(=O)(=O)N4CCN(CC)CC4)ccc3OCC)nn12 [Vardenafil, vardenafil] | 24.8 | 9 | 7.43 ± 0.21 | 729.29 ± 83.23 | 2.87 ± 0.25 | – | half-life ([5]; plasma, patients with portal hypertension, 10 mg oral, mean ± standard deviation, read-out: Half-life (converted)): 378 ± 126 min |
